Measurements from PubChem BioAssay AID1259408 (Genetic Toxicology Data Bank (GENE-TOX), 2018).
Active and inactive are the calls of the source. The rule behind the calls is not given here.

System: GENE-TOX genotoxicity assays, various organisms and cells
Test: GENE-TOX mutagenicity studies
Settings: for call: Assay Type: In vivo carcinogenicity studies
[1] = Species/Cell Type: Mouse lymphoma (L5178Y) cells, Assay Type: Forward gene mutation at the thymidine kinase (TK) locus, chromosome aberrations, Assay Code: L51+, Evaluation Type: Evaluation A (Pre-1980)
[2] = Species/Cell Type: Neurospora crassa, Assay Type: Forward gene mutation, Assay Code: NEF+, Evaluation Type: Evaluation A (Pre-1980)
[3] = Species/Cell Type: Saccharomyces cerevisiae, Assay Type: Reverse gene mutation, Assay Code: YER+, Evaluation Type: Evaluation A (Pre-1980)
[4] = Species/Cell Type: Salmonella typhimurium (one or more of the five standard strains: TA98, TA100, TA1535, TA1537, and TA1538), Assay Type: Histidine reverse gene mutation, Ames assay, Assay Code: SAL+, Evaluation Type: Evaluation A (Pre-1980)
[5] = Species/Cell Type: Salmonella typhimurium, Assay Type: Forward and reverse gene mutation, host-mediated assay, Assay Code: HMA+, Evaluation Type: Evaluation A (Pre-1980)
[6] = Species/Cell Type: Nonhuman, Assay Code: CCG+, Evaluation Type: Evaluation A (Pre-1980)
[7] = Species/Cell Type: Saccharomyces cerevisiae, Assay Type: Mitotic recombination or gene conversion, Assay Code: YEH+/-*, Activation: With metabolic activation, Evaluation Type: Evaluation A (Pre-1980)
[8] = Species/Cell Type: Syrian hamster embryo (SHE) cells, Assay Type: Cell transformation, clonal assay, Assay Code: CTC+, Evaluation Type: Evaluation A (Pre-1980)
[9] = Species/Cell Type: Escherichia coli polA (W3119 vs P3478), Assay Type: Rec-assay, DNA effects (bacterial DNA repair), Assay Code: RE1T, Evaluation Type: Evaluation A (Pre-1980)
[10] = Species/Cell Type: Salmonella typhimurium (one or more of the five standard strains: TA98, TA100, TA1535, TA1537, and TA1538), Assay Type: Histidine reverse gene mutation, Ames assay, Assay Code: SALT, Evaluation Type: Evaluation A (Pre-1980)

Compound: CCN(CC)CCn1nc2c3c(c(CO)ccc31)Sc1cc(Cl)ccc1-2
- mutagenic call (Species/Cell Type: Drosophila melanogaster, Assay Type: Sex-linked recessive lethal gene mutation, Assay Code: SRL-, Evaluation Type: Evaluation A (Pre-1980)): inactive; negative
- mutagenic call (Species/Cell Type: Fischer rat embryo (RLV/1706) cells, Assay Type: Cell transformation, viral enhanced, Assay Code: CTR-, Evaluation Type: Evaluation A (Pre-1980)): inactive; negative
- mutagenic call [1]: active; positive
- mutagenic call [2]: active; positive
- mutagenic call [3]: active; positive
- mutagenic call [4]: active; positive
- mutagenic call (Species/Cell Type: Salmonella typhimurium, Assay Type: Forward and reverse gene mutation, body fluid assay, Assay Code: BFU+, Evaluation Type: Evaluation A (Pre-1980)): active; positive
- mutagenic call [5]: active; positive

Compound: OC[C@@H](O)[C@@H](O)[C@H](O)[C@H](O)CO
- mutagenic call (Species/Cell Type: Escherichia coli WP2 UVRA, Assay Type: Tryptophan reverse gene mutation, Assay Code: WPU-*, Activation: With metabolic activation, Evaluation Type: Evaluation A (Pre-1980)): inactive; negative
- call (Species/Cell Type: Nonhuman, Assay Code: CCG-, Evaluation Type: Evaluation A (Pre-1980)): inactive; negative

Compound: ClC(Cl)Cl
- mutagenic call (Species/Cell Type: Chinese hamster lung (V79) cells, Assay Type: Forward gene mutation at the HPRT or ouabain locus, Assay Code: V79-, Evaluation Type: Evaluation A (Pre-1980)): inactive; negative
- mutagenic call (Species/Cell Type: Human lymphocytes, Assay Type: Sister-chromatid exchange (SCE) in vitro, Assay Code: SCL+D, Dose Response: With dose response, Evaluation Type: Evaluation B (Post-1980)): active; positive
- mutagenic call (Species/Cell Type: Human, Assay Type: Sister-chromatid exchange (SCE) in vitro, Assay Code: SC1+D, Dose Response: With dose response, Evaluation Type: Evaluation B (Post-1980)): active; positive
- mutagenic call (Species/Cell Type: Mammalian polychromatic erythrocytes, Assay Type: Micronucleus test, chromosome aberrations, Assay Code: MNTT, Evaluation Type: Evaluation A (Pre-1980)): no conclusion
- mutagenic call (Species/Cell Type: Mouse, Sex: Male, Assay Type: Sperm morphology, Assay Code: SPIT, Evaluation Type: Evaluation A (Pre-1980)): no conclusion
- call [6]: active; positive
- mutagenic call (Species/Cell Type: Nonhuman, Assay Type: Sister-chromatid exchange (SCE) in vitro, Assay Code: SC2T, Evaluation Type: Evaluation B (Post-1980)): no conclusion
- mutagenic call (Species/Cell Type: Nonhuman, Assay Type: Sister-chromatid exchange (SCE) in vivo, Assay Code: SC3+D, Dose Response: With dose response, Evaluation Type: Evaluation B (Post-1980)): active; positive
- mutagenic call (Species/Cell Type: Saccharomyces cerevisiae, Assay Type: Mitotic recombination or gene conversion, Assay Code: YEC+, Evaluation Type: Evaluation A (Pre-1980)): active; positive
- mutagenic call (Species/Cell Type: Saccharomyces cerevisiae, Assay Type: Mitotic recombination or gene conversion, Assay Code: YEH+, Evaluation Type: Evaluation A (Pre-1980)): active; positive
- mutagenic call [3]: active; positive
- mutagenic call (Species/Cell Type: Syrian hamster embryo (SA7/SHE) cells, Assay Type: Cell transformation, viral enhanced, Assay Code: CT7-, Evaluation Type: Evaluation A (Pre-1980)): inactive; negative

Compound: CNNCc1ccc(C(=O)NC(C)C)cc1
- mutagenic call (Species/Cell Type: Drosophila melanogaster, Assay Type: Aneuploidy, partial sex chromosome loss, chromosome aberrations, Assay Code: DAP-M, Evaluation Type: Evaluation A (Pre-1980)): inactive; negative
- mutagenic call (Species/Cell Type: Drosophila melanogaster, Assay Type: Aneuploidy, whole sex chromosome loss, chromosome aberrations, Assay Code: DAC+M, Evaluation Type: Evaluation A (Pre-1980)): active; positive
- mutagenic call (Species/Cell Type: Drosophila melanogaster, Assay Type: Sex-linked recessive lethal gene mutation, Assay Code: SRL+, Evaluation Type: Evaluation A (Pre-1980)): active; positive
- mutagenic call (Species/Cell Type: Drosophila melanogaster, Sex: Male, Assay Type: Heritable translocation test, chromosome aberrations, Assay Code: DHT-, Evaluation Type: Evaluation A (Pre-1980)): inactive; negative
- mutagenic call (Species/Cell Type: Escherichia coli polA (W3119 vs P3478), Assay Type: Rec-assay, DNA effects (bacterial DNA repair), Assay Code: RE1+, Evaluation Type: Evaluation A (Pre-1980)): active; positive
- mutagenic call (Species/Cell Type: Fischer rat embryo (RLV/1706) cells, Assay Type: Cell transformation, viral enhanced, Assay Code: CTR+, Evaluation Type: Evaluation A (Pre-1980)): active; positive
- mutagenic call (Species/Cell Type: Human lymphocytes, Assay Type: Sister-chromatid exchange (SCE) in vitro, Assay Code: SCL+, Evaluation Type: Evaluation B (Post-1980)): active; positive
- mutagenic call (Species/Cell Type: Human, Assay Type: Sister-chromatid exchange (SCE) in vitro, Assay Code: SC1+, Evaluation Type: Evaluation B (Post-1980)): active; positive
- mutagenic call (Species/Cell Type: Mammalian polychromatic erythrocytes, Assay Type: Micronucleus test, chromosome aberrations, Assay Code: MNT+, Evaluation Type: Evaluation A (Pre-1980)): active; positive
- mutagenic call (Species/Cell Type: Mouse (BALB/c-3T3) cells, Assay Type: Cell transformation, Assay Code: CTB-, Evaluation Type: Evaluation A (Pre-1980)): inactive; negative
- mutagenic call [1]: active; positive
- mutagenic call (Species/Cell Type: Mouse, Sex: Female, Assay Type: Spot test, gene mutation, Assay Code: MST+, Evaluation Type: Evaluation A (Pre-1980)): active; positive
- mutagenic call (Species/Cell Type: Mouse, Sex: Male, Assay Type: Heritable translocation test, chromosome aberrations, Assay Code: HTT+, Evaluation Type: Evaluation A (Pre-1980)): active; positive
- mutagenic call (Species/Cell Type: Mouse, Sex: Male, Assay Type: Specific locus test, gene mutation, Assay Code: SLT+, Evaluation Type: Evaluation A (Pre-1980)): active; positive
- mutagenic call (Species/Cell Type: Mouse, Sex: Male, Assay Type: Sperm morphology, Assay Code: SPI+, Evaluation Type: Evaluation A (Pre-1980)): active; positive
- mutagenic call [2]: active; positive
- call [6]: active; positive
- mutagenic call (Species/Cell Type: Nonhuman, Assay Type: Sister-chromatid exchange (SCE) in vivo, Assay Code: SC3+D, Dose Response: With dose response, Evaluation Type: Evaluation A (Pre-1980)): active; positive
- mutagenic call (Species/Cell Type: Rabbit, Sex: Male, Assay Type: Sperm morphology, Assay Code: SPR+, Evaluation Type: Evaluation A (Pre-1980)): active; positive
- mutagenic call (Species/Cell Type: Rodents, Sex: Male, Assay Type: Dominant lethal test, Assay Code: DLT+, Evaluation Type: Evaluation A (Pre-1980)): active; positive
- mutagenic call (Species/Cell Type: Saccharomyces cerevisiae, Assay Type: Mitotic recombination or gene conversion, Assay Code: YEC+/-*, Activation: With metabolic activation, Evaluation Type: Evaluation A (Pre-1980)): inactive; positive without activation, negative with activation
- mutagenic call [7]: inactive; positive without activation, negative with activation
- mutagenic call (Species/Cell Type: Saccharomyces cerevisiae, Assay Type: Reverse gene mutation, Assay Code: YER+/-*, Activation: With metabolic activation, Evaluation Type: Evaluation A (Pre-1980)): inactive; positive without activation, negative with activation
- mutagenic call (Species/Cell Type: Salmonella typhimurium (one or more of the five standard strains: TA98, TA100, TA1535, TA1537, and TA1538), Assay Type: Histidine reverse gene mutation, Ames assay, Assay Code: SAL-, Evaluation Type: Evaluation A (Pre-1980)): inactive; negative
- mutagenic call [5]: active; positive
- mutagenic call [8]: active; positive

Compound: COc1ccc2c(c1)OC(C)(C)[C@@H](c1ccccc1)[C@@H]2c1ccc(OCCN2CCCC2)cc1
- mutagenic call (Species/Cell Type: Human, Sex: Male, Assay Type: Sperm morphology, Assay Code: SPHT, Evaluation Type: Evaluation A (Pre-1980)): no conclusion

Compound: O[C@H]1C=Cc2cc3c4ccccc4c4ccccc4c3cc2[C@@H]1O
- mutagenic call (Species/Cell Type: Nonhuman, Assay Type: Sister-chromatid exchange (SCE) in vitro, Assay Code: SC2+D, Dose Response: With dose response, Evaluation Type: Evaluation B (Post-1980)): active; positive

Compound: CC(C)CI
- mutagenic call [9]: no conclusion

Compound: Cc1ccc(F)c2ccc3c4ccccc4ccc3c12
- mutagenic call [10]: no conclusion

Compound: COc1cc(N=Nc2ccccc2)ccc1[N+](=O)[O-]
- mutagenic call [4]: active; positive

Compound: COc1cc(N=Nc2ccccc2)ccc1N
- mutagenic call (Species/Cell Type: Escherichia coli polA (W3110 vs P3478), Assay Type: Rec-assay, DNA effects (bacterial DNA repair), Assay Code: RE2+, Evaluation Type: Evaluation A (Pre-1980)): active; positive
- mutagenic call [9]: no conclusion
- call (Species/Cell Type: Nonhuman, Assay Code: CCG+L, Evaluation Type: Evaluation A (Pre-1980)): active; positive
- mutagenic call [7]: inactive; positive without activation, negative with activation
- mutagenic call (Species/Cell Type: Salmonella typhimurium (one or more of the five standard strains: TA98, TA100, TA1535, TA1537, and TA1538), Assay Type: Histidine reverse gene mutation, Ames assay, Assay Code: SAL+*, Activation: With metabolic activation, Evaluation Type: Evaluation A (Pre-1980)): active; positive
- mutagenic call [5]: active; positive
- mutagenic call [8]: active; positive

Compound: O=S(=O)(O)c1ccc(O)c(N=Nc2c(O)ccc3ccccc23)c1
- mutagenic call [10]: no conclusion

Compound: CN(N=O)C(=O)c1ccccc1
- mutagenic call [4]: active; positive

Compound: NC(=S)c1ccccc1
- mutagenic call (Species/Cell Type: Mammalian polychromatic erythrocytes, Assay Type: Micronucleus test, chromosome aberrations, Assay Code: MNT+, Evaluation Type: Evaluation B (Post-1980)): active; positive
